Measured values reported in patent US10004701B2, “Methods and compositions for treating infection” (UNIVERSITY OF ROCHESTER, priority 2012, dated 2018).
Read-outs that look alike come from different tables or passages of the source.

Legend:
Assay in all cases: AK assay 384-well format, Prestwick library screening
[1] = tested on: E. cloacae; format: cell-based, Enterobacter cloacae; settings: 50 μM final drug concentration; for fold induction at 50 µM: Enterobacter cloacae, 3 h
[2] = tested on: K. pneumoniae; format: cell-based, Klebsiella pneumoniae; settings: 50 μM final drug concentration; for fold induction at 50 µM: Klebsiella pneumoniae, 3 h, cutoff for positive-scoring molecules 3-fold increase
[3] = tested on: E. coli; format: cell-based, Escherichia coli; settings: 50 μM final drug concentration; for fold induction at 50 µM: Escherichia coli, 3 h
[4] = tested on: A. baumannii strain 98-37-09; format: cell-based, Acinetobacter baumannii; settings: 50 μM final drug concentration; for fold induction at 50 µM: Acinetobacter baumannii, 983709, 3 h, cutoff for positive-scoring molecules 3-fold increase
[5] = tested on: E. faecium; format: cell-based, Enterococcus faecium; settings: 50 μM final drug concentration; for fold induction at 50 µM: Enterococcus faecium, 3 h
[6] = tested on: S. aureus strain USA300-0114; format: cell-based, Staphylococcus aureus; settings: 50 μM final drug concentration; for fold induction at 50 µM: Staphylococcus aureus, USA300, 3 h
[7] = tested on: P. aeruginosa; format: cell-based, Pseudomonas aeruginosa; settings: 50 μM final drug concentration; for fold induction at 50 µM: Pseudomonas aeruginosa, 3 h
[8] = cutoff for positive-scoring molecules 3-fold increase, read-out: AK-based Prestwick Library Screening Results, E. cloacae (fold increase in extracellular AK activity)
[9] = read-out: AK-based Prestwick Library Screening Results, K. pneumoniae (fold increase in extracellular AK activity)
[10] = cutoff for positive-scoring molecules 3-fold increase, read-out: AK-based Prestwick Library Screening Results, E. coli (fold increase in extracellular AK activity)
[11] = read-out: AK-based Prestwick Library Screening Results, A. baumannii (fold increase in extracellular AK activity)
[12] = cutoff for positive-scoring molecules 3-fold increase, read-out: AK-based Prestwick Library Screening Results, E. faecium (fold increase in extracellular AK activity)
[13] = cutoff for positive-scoring molecules 3-fold increase, read-out: AK-based Prestwick Library Screening Results, S. aureus (fold increase in extracellular AK activity)
[14] = cutoff for positive-scoring molecules 3-fold increase, read-out: AK-based Prestwick Library Screening Results, P. aeruginosa (fold increase in extracellular AK activity)

## CC1Cc2ccccc2N1NC(=O)c1ccc(Cl)c(S(N)(=O)=O)c1 (centres unmarked) [Indapamide]
[1]; planktonic E. cloacae, 384-well, cutoff for positive-scoring molecules 3-fold increase, read-out: AK-based Prestwick Library Screening Results: E. cloacae (increase in extracellular AK activity)
  fold induction at 50 µM: 1.7
[2]; planktonic K. pneumoniae, 384-well, read-out: AK-based Prestwick Library Screening Results: K. pneumoniae (increase in extracellular AK activity)
  fold induction at 50 µM: 1.1
[3]; planktonic E. coli, 384-well, cutoff for positive-scoring molecules 3-fold increase, read-out: AK-based Prestwick Library Screening Results: E. coli (increase in extracellular AK activity)
  fold induction at 50 µM: 1.1
[4]; planktonic A. baumannii, 384-well, read-out: AK-based Prestwick Library Screening Results: A. baumannii (increase in extracellular AK activity)
  fold induction at 50 µM: 1
[5]; planktonic E. faecium, 384-well, cutoff for positive-scoring molecules 3-fold increase, read-out: AK-based Prestwick Library Screening Results: E. faecium (increase in extracellular AK activity)
  fold induction at 50 µM: 1.1
[6]; planktonic S. aureus, 384-well, cutoff for positive-scoring molecules 3-fold increase, read-out: AK-based Prestwick Library Screening Results: S. aureus (increase in extracellular AK activity)
  fold induction at 50 µM: 1
[7]; planktonic P. aeruginosa, 384-well, cutoff for positive-scoring molecules 3-fold increase, read-out: AK-based Prestwick Library Screening Results: P. aeruginosa (increase in extracellular AK activity)
  fold induction at 50 µM: 1.1

## COc1ccc2c(c1)c(CC(=O)O)c(C)n2C(=O)c1ccc(Cl)cc1 [Indomethacin]
[1]; 384-well format, cutoff for positive-scoring molecules 3-fold increase, read-out: AK-based Prestwick Library Screening Results, E. cloacae (increase in extracellular AK activity)
  fold induction at 50 µM: 1.2
[2]; 384-well format, read-out: AK-based Prestwick Library Screening Results, K. pneumoniae (increase in extracellular AK activity)
  fold induction at 50 µM: 0.8
[3]; 384-well format, cutoff for positive-scoring molecules 3-fold increase, read-out: AK-based Prestwick Library Screening Results, E. coli (increase in extracellular AK activity)
  fold induction at 50 µM: 0.9
[4]; 384-well format, read-out: AK-based Prestwick Library Screening Results, A. baumannii (increase in extracellular AK activity)
  fold induction at 50 µM: 1
[5]; 384-well format, cutoff for positive-scoring molecules 3-fold increase, read-out: AK-based Prestwick Library Screening Results, E. faecium (increase in extracellular AK activity)
  fold induction at 50 µM: 0.9
[6]; 384-well format, cutoff for positive-scoring molecules 3-fold increase, read-out: AK-based Prestwick Library Screening Results, S. aureus (increase in extracellular AK activity)
  fold induction at 50 µM: 0.6
[7]; 384-well format, cutoff for positive-scoring molecules 3-fold increase, read-out: AK-based Prestwick Library Screening Results, P. aeruginosa (increase in extracellular AK activity)
  fold induction at 50 µM: 0.9

## CC(C(=O)O)c1ccc(N2Cc3ccccc3C2=O)cc1 (centres unmarked) [Indoprofen]
[1]; planktonic, cutoff for positive-scoring molecules 3-fold increase, read-out: AK-based Prestwick Library Screening Results, E. cloacae (fold increase in extracellular AK activity)
  fold induction at 50 µM: 1.5
[2]; planktonic, read-out: AK-based Prestwick Library Screening Results, K. pneumoniae (fold increase in extracellular AK activity)
  fold induction at 50 µM: 0.1
[3]; planktonic, cutoff for positive-scoring molecules 3-fold increase, read-out: AK-based Prestwick Library Screening Results, E. coli (fold increase in extracellular AK activity)
  fold induction at 50 µM: 0.2
[4]; planktonic, read-out: AK-based Prestwick Library Screening Results, A. baumannii (fold increase in extracellular AK activity)
  fold induction at 50 µM: 0.2
[5]; planktonic, cutoff for positive-scoring molecules 3-fold increase, read-out: AK-based Prestwick Library Screening Results, E. faecium (fold increase in extracellular AK activity)
  fold induction at 50 µM: 0.1
[6]; planktonic, cutoff for positive-scoring molecules 3-fold increase, read-out: AK-based Prestwick Library Screening Results, S. aureus (fold increase in extracellular AK activity)
  fold induction at 50 µM: 0.2
[7]; planktonic, cutoff for positive-scoring molecules 3-fold increase, read-out: AK-based Prestwick Library Screening Results, P. aeruginosa (fold increase in extracellular AK activity)
  fold induction at 50 µM: 0.2

## O=C(CCCCC(=O)Nc1c(I)cc(I)c(C(=O)O)c1I)Nc1c(I)cc(I)c(C(=O)O)c1I [Iodipamide]
[1]; [8]
  fold induction at 50 µM: 1.6
[2]; [9]
  fold induction at 50 µM: 1
[3]; [10]
  fold induction at 50 µM: 1.2
[4]; [11]
  fold induction at 50 µM: 1.2
[5]; [12]
  fold induction at 50 µM: 1
[6]; [13]
  fold induction at 50 µM: 1
[7]; [14]
  fold induction at 50 µM: 1.1

## CC(=O)N(CC(O)CN(C(C)=O)c1c(I)c(C(=O)NCC(O)CO)c(I)c(C(=O)NCC(O)CO)c1I)c1c(I)c(C(=O)NCC(O)CO)c(I)c(C(=O)NCC(O)CO)c1I (centres unmarked) [Iodixanol]
[1]; […], read-out: AK-based Prestwick Library Screening Results, E. cloacae (fold increase in extracellular AK activity)
  fold induction at 50 µM: 1.5
[2]; [9]
  fold induction at 50 µM: 1
[3]; […], read-out: AK-based Prestwick Library Screening Results, E. coli (fold increase in extracellular AK activity)
  fold induction at 50 µM: 1.3
[4]; [11]
  fold induction at 50 µM: 1
[5]; […], read-out: AK-based Prestwick Library Screening Results, E. faecium (fold increase in extracellular AK activity)
  fold induction at 50 µM: 1.1
[6]; […], read-out: AK-based Prestwick Library Screening Results, S. aureus (fold increase in extracellular AK activity)
  fold induction at 50 µM: 1.3
[7]; […], read-out: AK-based Prestwick Library Screening Results, P. aeruginosa (fold increase in extracellular AK activity)
  fold induction at 50 µM: 1.2

## CC(=O)N(CC(O)CO)c1c(I)c(C(=O)NCC(O)CO)c(I)c(C(=O)NCC(O)CO)c1I (centres unmarked) [Iohexol]
[1]; planktonic E. cloacae, cutoff for positive-scoring molecules 3-fold increase, read-out: AK-based Prestwick Library Screening Results, E. cloacae (increase in extracellular AK activity)
  fold induction at 50 µM: 1.1
[2]; planktonic K. pneumoniae, read-out: AK-based Prestwick Library Screening Results, K. pneumoniae (increase in extracellular AK activity)
  fold induction at 50 µM: 0.7
[3]; planktonic E. coli, cutoff for positive-scoring molecules 3-fold increase, read-out: AK-based Prestwick Library Screening Results, E. coli (increase in extracellular AK activity)
  fold induction at 50 µM: 1
[4]; planktonic A. baumannii, read-out: AK-based Prestwick Library Screening Results, A. baumannii (increase in extracellular AK activity)
  fold induction at 50 µM: 0.9
[5]; planktonic E. faecium, cutoff for positive-scoring molecules 3-fold increase, read-out: AK-based Prestwick Library Screening Results, E. faecium (increase in extracellular AK activity)
  fold induction at 50 µM: 0.9
[6]; planktonic S. aureus, cutoff for positive-scoring molecules 3-fold increase, read-out: AK-based Prestwick Library Screening Results, S. aureus (increase in extracellular AK activity)
  fold induction at 50 µM: 0.7
[7]; planktonic P. aeruginosa, cutoff for positive-scoring molecules 3-fold increase, read-out: AK-based Prestwick Library Screening Results, P. aeruginosa (increase in extracellular AK activity)
  fold induction at 50 µM: 0.8

## C[C@H](O)C(=O)Nc1c(I)c(C(=O)NC(CO)CO)c(I)c(C(=O)NC(CO)CO)c1I [Iopamidol]
[1]; [8]
  fold induction at 50 µM: 1.4
[2]; [9]
  fold induction at 50 µM: 1.2
[3]; [10]
  fold induction at 50 µM: 1.2
[4]; [11]
  fold induction at 50 µM: 1.2
[5]; [12]
  fold induction at 50 µM: 1
[6]; [13]
  fold induction at 50 µM: 1.3
[7]; [14]
  fold induction at 50 µM: 1.2

## CCC(Cc1c(I)cc(I)c(N)c1I)C(=O)O (centres unmarked) [Iopanoic acid]
[1]; [8]
  fold induction at 50 µM: 9.6
[2]; [9]
  fold induction at 50 µM: 0.6
[3]; [10]
  fold induction at 50 µM: 0.6
[4]; [11]
  fold induction at 50 µM: 0.6
[5]; [12]
  fold induction at 50 µM: 0.9
[6]; [13]
  fold induction at 50 µM: 0.4
[7]; [14]
  fold induction at 50 µM: 0.6

## COCC(=O)Nc1c(I)c(C(=O)NCC(O)CO)c(I)c(C(=O)N(C)CC(O)CO)c1I (centres unmarked) [Iopromide]
[1]; [8]
  fold induction at 50 µM: 1.4
[2]; [9]
  fold induction at 50 µM: 1.1
[3]; [10]
  fold induction at 50 µM: 1.2
[4]; [11]
  fold induction at 50 µM: 1.1
[5]; [12]
  fold induction at 50 µM: 1
[6]; [13]
  fold induction at 50 µM: 1.3
[7]; [14]
  fold induction at 50 µM: 1.2

## O=C(NCC(O)CO)c1c(I)c(C(=O)NCC(O)CO)c(I)c(N(CCO)C(=O)CO)c1I (centres unmarked) [Ioversol]
[1]; [8]
  fold induction at 50 µM: 1.4
[2]; [9]
  fold induction at 50 µM: 1.2
[3]; [10]
  fold induction at 50 µM: 1.2
[4]; [11]
  fold induction at 50 µM: 1.3
[5]; [12]
  fold induction at 50 µM: 1
[6]; [13]
  fold induction at 50 µM: 1.2
[7]; [14]
  fold induction at 50 µM: 1.2

## CC(C)[N+]1(C)[C@@H]2CC[C@H]1CC(OC(=O)C(CO)c1ccccc1)C2.[Br-] (some centres unmarked) [Ipratropium bromide]
[1]; planktonic E. cloacae, […]
  AK-based Prestwick Library Screening Results, E. cloacae (increase in extracellular AK activity): 0.8
[2]; planktonic K. pneumoniae, […]
  AK-based Prestwick Library Screening Results, K. pneumoniae (increase in extracellular AK activity): 0.6
[3]; planktonic E. coli, […]
  AK-based Prestwick Library Screening Results, E. coli (increase in extracellular AK activity): 0.6
[4]; planktonic A. baumannii, […]
  AK-based Prestwick Library Screening Results, A. baumannii (increase in extracellular AK activity): 0.6
[5]; planktonic E. faecium, […]
  AK-based Prestwick Library Screening Results, E. faecium (increase in extracellular AK activity): 0.9
[6]; planktonic S. aureus, […]
  AK-based Prestwick Library Screening Results, S. aureus (increase in extracellular AK activity): 0.7
[7]; planktonic P. aeruginosa, […]
  AK-based Prestwick Library Screening Results, P. aeruginosa (increase in extracellular AK activity): 0.8
